Here are results for 27 molecules from patent US7851474B2, “Dipiperazinyl ketones and related analogues” (Neurogen Corporation, priority 2005, dated 2010).

Molecules are shown by their SMILES.

The target of the first assay is T1, chimeric human H3 receptor (Homo sapiens, UniProt Q9Y5N1, E19D).
T1 construct: made in house; host or cells: Sf9 insect cells (baculovirus infection); P2 membrane preparation
T1 sequence (Q9Y5N1 with tags, fused parts or gaps E19D): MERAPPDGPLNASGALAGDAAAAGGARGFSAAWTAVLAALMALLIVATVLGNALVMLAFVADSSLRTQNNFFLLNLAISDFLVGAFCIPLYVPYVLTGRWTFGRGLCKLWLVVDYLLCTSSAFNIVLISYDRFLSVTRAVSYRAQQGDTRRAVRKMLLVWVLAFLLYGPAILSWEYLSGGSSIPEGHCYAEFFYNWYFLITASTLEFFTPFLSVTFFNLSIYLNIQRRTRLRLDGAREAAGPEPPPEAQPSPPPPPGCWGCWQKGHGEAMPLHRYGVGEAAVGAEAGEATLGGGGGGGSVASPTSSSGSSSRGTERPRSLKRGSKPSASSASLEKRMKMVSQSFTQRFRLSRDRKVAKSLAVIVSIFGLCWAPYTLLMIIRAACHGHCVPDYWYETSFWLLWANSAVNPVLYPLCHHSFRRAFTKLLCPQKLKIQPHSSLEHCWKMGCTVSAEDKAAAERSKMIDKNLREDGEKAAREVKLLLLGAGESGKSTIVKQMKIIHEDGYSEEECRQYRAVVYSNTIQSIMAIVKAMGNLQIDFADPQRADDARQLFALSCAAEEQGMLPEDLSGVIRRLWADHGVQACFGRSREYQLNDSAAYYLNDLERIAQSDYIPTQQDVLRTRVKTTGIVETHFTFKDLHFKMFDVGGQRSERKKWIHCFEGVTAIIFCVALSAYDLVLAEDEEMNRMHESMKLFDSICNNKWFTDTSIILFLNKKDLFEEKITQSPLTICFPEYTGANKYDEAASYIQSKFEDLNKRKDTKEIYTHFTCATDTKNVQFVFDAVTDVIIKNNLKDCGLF
Put plainly: Chimeric human H3 receptor GTP binding assay (agonist-stimulated GTP-gamma35S binding, Example 7). The class given is biochemical.
Conditions: not given
The essentials:
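IC50 values come from non-linear regression of dose-response curves of filter-bound GTP-gamma^35S, counted by scintillation. Membranes were from infected Sf9 cells carrying receptor plus G-protein subunits, 35 μg/tube, with 10 μM GDP present.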
Background: GTPγS resists hydrolysis and so accumulates on activated G proteins.
With `O=C(CN1CCN(c2cccc(C(F)(F)F)c2)CC1)N1CCN(C2CCC2)CC1` [Compound 590, 1-cyclobutyl-4-({4-[3-(trifluoromethyl)phenyl]piperazin-1-yl}acetyl)piperazine], the Ki was less than 1000 nM.

The same assay, now with this note: "*" in Ki of Table II; assay of Example 7; read-out: Ki.
As for `COc1ccc(OC)c(CC(=O)N2CCN(CC(=O)N3CCN(C4CCC4)CC3)CC2)c1` [Compound 509, 1-cyclobutyl-4-({4-[(2,5-dimethoxyphenyl)acetyl]piperazin-1-yl}acetyl)piperazine], the Ki was less than 1000 nM.
For `O=C(Cc1c(Cl)cccc1Cl)N1CCN(CC(=O)N2CCN(C3CCC3)CC2)CC1` [Compound 511, 1-cyclobutyl-4-({4-[(2,6-dichlorophenyl)acetyl]piperazin-1-yl}acetyl)piperazine], the Ki was less than 1000 nM.
As to `COc1ccccc1CC(=O)N1CCN(CC(=O)N2CCN(C3CCC3)CC2)CC1` [Compound 536, 1-cyclobutyl-4-({4-[(2-methoxyphenyl)acetyl]piperazin-1-yl}acetyl)piperazine], the Ki was less than 1000 nM.
For `O=C(Cc1ccccc1Oc1ccccc1)N1CCN(CC(=O)N2CCN(C3CCC3)CC2)CC1` [Compound 541, 1-cyclobutyl-4-({4-[(2-phenoxyphenyl)acetyl]piperazin-1-yl}acetyl)piperazine], the inhibition constant Ki was less than 1000 nM.
On the same count and under the same terms, the figure for `Cc1cccc(OC(C)C(=O)N2CCN(CC(=O)N3CCN(C4CCC4)CC3)CC2)c1C` (stereo not drawn) [Compound 571, 1-cyclobutyl-4-({4-[2-(2,3-dimethylphenoxy)propanoyl]piperazin-1-yl}acetyl)piperazine] is less than 1000 nM.
Still for that read-out and setting: the figure for `Cc1ccccc1OC(C)C(=O)N1CCN(CC(=O)N2CCN(C3CCC3)CC2)CC1` (stereo not drawn) [Compound 573, 1-cyclobutyl-4-({4-[2-(2-methylphenoxy)propanoyl]piperazin-1-yl}acetyl)piperazine] is less than 1000 nM.

The assay is the same for the next values; noted with them: Table II, "*" in Ki; assay of Example 7; read-out: Ki.
On to `O=C(CN1CCN(c2ccc(-c3ccccc3C(F)(F)F)cc2)CC1)N1CCN(C2CCC2)CC1` [Compound 580, 1-cyclobutyl-4-({4-[2′-(trifluoromethyl)biphenyl-4-yl]piperazin-1-yl}acetyl)piperazine], for which the Ki was less than 1000 nM.
As for `CS(=O)(=O)c1ccc(N2CCN(CC(=O)N3CCN(C4CCC4)CC3)CC2)c(F)c1` [Compound 581, 1-cyclobutyl-4-({4-[2-fluoro-4-(methylsulfonyl)phenyl]piperazin-1-yl}acetyl)piperazine], the Ki was less than 1000 nM.
As for `O=C(CN1CCN(c2cccc(C(=O)N3CC=CCC3)c2)CC1)N1CCN(C2CCC2)CC1` [Compound 583], the Ki was less than 1000 nM.
With `CSc1cccc(-c2ccc(N3CCN(CC(=O)N4CCN(C5CCC5)CC4)CC3)cc2)c1` [Compound 584, 1-cyclobutyl-4-({4-[3′-(methylthio)biphenyl-4-yl]piperazin-1-yl}acetyl)piperazine], the inhibitory constant (Ki) is less than 1000 nM.
Regarding `O=C(CN1CCN(c2cccc(C(=O)N3CCCCC3)c2)CC1)N1CCN(C2CCC2)CC1` [Compound 585, 1-cyclobutyl-4-({4-[3-(piperidin-1-ylcarbonyl)phenyl]piperazin-1-yl}acetyl)piperazine], the Ki is less than 1000 nM.
For the molecule `O=C(CN1CCN(c2cccc(C(=O)N3CCCC3)c2)CC1)N1CCN(C2CCC2)CC1` [Compound 586, 1-cyclobutyl-4-({4-[3-(pyrrolidin-1-ylcarbonyl)phenyl]piperazin-1-yl}acetyl)piperazine], the Ki is less than 1000 nM.
For the molecule `O=C(CN1CCN(c2ccc(-c3cccc(OC(F)(F)F)c3)cc2)CC1)N1CCN(C2CCC2)CC1` [Compound 587, 1-cyclobutyl-4-({4-[3′-(trifluoromethoxy)biphenyl-4-yl]piperazin-1-yl}acetyl)piperazine], the Ki was less than 1000 nM.
For `O=C(CN1CCN(c2ccc(-c3cccc(C(F)(F)F)c3)cc2)CC1)N1CCN(C2CCC2)CC1` [Compound 589, 1-cyclobutyl-4-({4-[3′-(trifluoromethyl)biphenyl-4-yl]piperazin-1-yl}acetyl)piperazine], the inhibition constant Ki is less than 1000 nM.
Still for that read-out and setting: as for `O=C(CN1CCN(c2ccc(-c3ccc4c(c3)OCCO4)cc2)CC1)N1CCN(C2CCC2)CC1` [Compound 592, 1-cyclobutyl-4-({4-[4-(2,3-dihydro-1,4-benzodioxin-6-yl)phenyl]piperazin-1-yl}acetyl)piperazine], the figure is less than 1000 nM.
Consider `O=C(CN1CCN(c2ccc(C(=O)N3CC=CCC3)cc2)CC1)N1CCN(C2CCC2)CC1` [Compound 593, 1-cyclobutyl-4-({4-[4-(3,6-dihydropyridin-1(2H)-ylcarbonyl)phenyl]piperazin-1-yl}acetyl)piperazine], for which the Ki is less than 1000 nM.
In the case of `Cc1noc(-c2ccc(N3CCN(CC(=O)N4CCN(C5CCC5)CC4)CC3)cc2)n1` [Compound 594, 1-cyclobutyl-4-({4-[4-(3-methyl-1,2,4-oxadiazol-5-yl)phenyl]piperazin-1-yl}acetyl)piperazine], the Ki is less than 1000 nM.
Same read-out and setting: as for `Cc1nc(-c2ccc(N3CCN(CC(=O)N4CCN(C5CCC5)CC4)CC3)cc2)no1` [Compound 595, 1-cyclobutyl-4-({4-[4-(5-methyl-1,2,4-oxadiazol-3-yl)phenyl]piperazin-1-yl}acetyl)piperazine], the figure is less than 1000 nM; as for `CCS(=O)(=O)c1ccc(N2CCN(CC(=O)N3CCN(C4CCC4)CC3)CC2)cc1` [Compound 597, 1-cyclobutyl-4-({4-[4-(ethylsulfonyl)phenyl]piperazin-1-yl}acetyl)piperazine], less than 1000 nM.
With `CS(=O)(=O)c1ccc(N2CCN(CC(=O)N3CCN(C4CCC4)CC3)CC2)cc1` [Compound 599, 1-cyclobutyl-4-({4-[4-(methylsulfonyl)phenyl]piperazin-1-yl}acetyl)piperazine], the Ki is less than 1000 nM.
On the same count and under the same terms, the figure for `O=C(CN1CCN(c2ccc(C(=O)N3CCCCC3)cc2)CC1)N1CCN(C2CCC2)CC1` [Compound 601, 1-cyclobutyl-4-({40[4-(piperidin-1-ylcarbonyl)phenyl]piperazin-1-yl}acetyl)piperazine] is less than 1000 nM.
On to `CCCS(=O)(=O)c1ccc(N2CCN(CC(=O)N3CCN(C4CCC4)CC3)CC2)cc1` [Compound 602, 1-cyclobutyl-4-({4-[4-(propylsulfonyl)phenyl]piperazin-1-yl}acetyl)piperazine], for which the inhibition constant Ki was less than 1000 nM.
On to `O=C(CN1CCN(c2ccc(C(=O)N3CCCC3)cc2)CC1)N1CCN(C2CCC2)CC1` [Compound 603, 1-cyclobutyl-4-({4-[4-(pyrrolidin-1-ylcarbonyl)phenyl]piperazin-1-yl}acetyl)piperazine], for which the Ki was less than 1000 nM.
Take `O=C(CN1CCN(c2ccc(-c3ccc(OC(F)(F)F)cc3)cc2)CC1)N1CCN(C2CCC2)CC1` [Compound 604, 1-cyclobutyl-4-({4-[4′-(trifluoromethoxy)biphenyl-4-yl]piperazin-1-yl}acetyl)piperazine]: the inhibitory constant (Ki) is less than 1000 nM.
Consider `O=C(CN1CCN(c2ccc(-c3ccc(C(F)(F)F)cc3)cc2)CC1)N1CCN(C2CCC2)CC1` [Compound 606, 1-cyclobutyl-4-({4-[4′-(trifluoromethyl)biphenyl-4-yl]piperazin-1-yl}acetyl)piperazine], for which the inhibitory constant (Ki) is less than 1000 nM.
For `O=C(CN1CCN(c2ccc(F)c(C(F)(F)F)c2)CC1)N1CCN(C2CCC2)CC1` [Compound 607, 1-cyclobutyl-4-({4-[4-fluoro-3-(trifluoromethyl)phenyl]piperazin-1-yl}acetyl)piperazine], the Ki was less than 1000 nM.

In general, Ki refers to the equilibrium dissociation constant of an inhibitor or competing ligand from its target.
